Assay results as given in PubChem BioAssay AID330 (DTP/NCI, 2004).
Several values for one entry are separate records, joined by “and”; a condition that tells them apart may be missing. Identical values can stand only once. Inconclusive results and toxic doses are left out.

Test system: P388 leukemia ip, CD2F1 mice, survival T/C
Assay: NCI In Vivo Anticancer Drug Screen. Data for tumor model P388 Leukemia (intraperitoneal) in CD2F1 (CDF1) mice
Details: endpoint: median survival time, higher = longer survival
How it was run: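 Mice carrying the transplanted tumor received test compound or vehicle. Survival was recorded in each group, and the value is the treated-group measurement divided by that of the vehicle-treated control group.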

[1] = dose: 60.0 mg/kg/injection, schedule: Q01DX005 (ip), vehicle: saline with Tween-80
[2] = dose: 120.0 mg/kg/injection, schedule: Q01DX005 (ip), vehicle: saline with Tween-80
[3] = dose: 240.0 mg/kg/injection, schedule: Q01DX005 (ip), vehicle: saline with Tween-80
[4] = dose: 50.0 mg/kg/injection, schedule: Q01DX005 (ip), vehicle: Klucel (hydroxypropylcellulose) (HPC)
[5] = dose: 100.0 mg/kg/injection, schedule: Q01DX005 (ip), vehicle: Klucel (hydroxypropylcellulose) (HPC)
[6] = dose: 25.0 mg/kg/injection, schedule: Q01DX009 (ip), vehicle: saline with Tween-80
[7] = dose: 50.0 mg/kg/injection, schedule: Q01DX009 (ip), vehicle: saline with Tween-80
[8] = dose: 100.0 mg/kg/injection, schedule: Q01DX009 (ip), vehicle: saline with Tween-80
[9] = dose: 200.0 mg/kg/injection, schedule: Q01DX009 (ip), vehicle: saline with Tween-80

Structure (SMILES): CS(=O)(=O)Cc1cc(-c2ccccc2)no1
- T/C [1]: 100 % of control
- T/C [2]: 99 % of control
- T/C [3]: 100 % of control

Structure (SMILES): Cc1ccc(O)c(C(=NCCCCN=C(c2ccccc2)c2cc(C)ccc2O)c2ccccc2)c1
- T/C [4]: 99 % of control
- T/C [5]: 94 % of control
- T/C (dose: 200.0 mg/kg/injection, schedule: Q01DX005 (ip), vehicle: Klucel (hydroxypropylcellulose) (HPC)): 99 % of control

Structure (SMILES): NC(=S)N/N=C/c1cccnc1
- T/C [6]: 92 % of control
- T/C [7]: 92 % of control
- T/C [8]: 99 % of control
- T/C [9]: 92 % of control

Structure (SMILES): CN(C)C1C(=O)C(C(N)=O)=C(O)C2(O)C(=O)C3=C(O)c4c(O)cccc4C(C)(O)C3CC12 (stereo not drawn)
- T/C (dose: 25.0 mg/kg/injection, schedule: Q01DX005 (ip), vehicle: Klucel (hydroxypropylcellulose) (HPC)): 94 % of control
- T/C [4]: 95 % of control
- T/C [5]: 95 % of control

Structure (SMILES): CCO/C=C1/N=C(c2ccc(OC)c(OC)c2)OC1=O
- T/C [1]: 110 % of control

Structure (SMILES): O=C(c1ccccc1)C1(c2ccccc2)CCCCC1
- T/C [1]: 94 % of control
- T/C [2]: 94 % of control
- T/C [3]: 86 % of control

Structure (SMILES): Cc1cc2c(c3ncccc13)OCN(Cc1ccc(Cl)c(Cl)c1)C2
- T/C [7]: 100 % of control
- T/C [8]: 98 % of control
- T/C [9]: 100 % of control

Structure (SMILES): O=[N+]([O-])c1ccc2nc(CCl)[nH]c2c1
- T/C (dose: 12.5 mg/kg/injection, schedule: Q01DX009 (ip), vehicle: saline with Tween-80): 103 % of control
- T/C [6]: 116 % of control
- T/C [7]: 99 % of control and 111 % of control

Structure (SMILES): Oc1ccc(C(O)CNCCCCCCNCC(O)c2ccc(O)c(O)c2)cc1O (stereo not drawn)
- T/C (dose: 33.0 mg/kg/injection, schedule: Q01DX009 (ip), vehicle: saline): 99 % of control and 88 % of control
- T/C (dose: 50.0 mg/kg/injection, schedule: Q01DX009 (ip), vehicle: saline): 121 % of control and 87 % of control and 96 % of control
- T/C (dose: 75.0 mg/kg/injection, schedule: Q01DX009 (ip), vehicle: saline): 96 % of control

Structure (SMILES): CCOC(=O)C(NC(=O)C1(O)C(O)C2(CC)C=CCN3CCC4(c5cc(C6(C(=O)OC)CC7CN(CCc8c6[nH]c6ccccc86)CC(O)(CC)C7)c(OC)cc5N(C)C14)C32)C(C)CC (stereo not drawn)
- T/C (dose: 1.0 mg/kg/injection, schedule: Q01DX001 (ip), vehicle: saline): 124 % of control
- T/C (dose: 2.0 mg/kg/injection, schedule: Q01DX001 (ip), vehicle: saline): 155 % of control
- T/C (dose: 4.0 mg/kg/injection, schedule: Q01DX001 (ip), vehicle: saline): 181 % of control
- T/C (dose: 8.0 mg/kg/injection, schedule: Q01DX001 (ip), vehicle: saline): 172 % of control and 203 % of control
- T/C (dose: 16.0 mg/kg/injection, schedule: Q01DX001 (ip), vehicle: saline): 191 % of control

Structure (SMILES): O=C(NCc1ccccc1)c1ccc(Cl)c(Cl)c1
- T/C (dose: 25.0 mg/kg/injection, schedule: Q04DX003 (ip), vehicle: saline with Tween-80): 101 % of control
- T/C (dose: 50.0 mg/kg/injection, schedule: Q04DX003 (ip), vehicle: saline with Tween-80): 104 % of control
- T/C (dose: 100.0 mg/kg/injection, schedule: Q04DX003 (ip), vehicle: saline with Tween-80): 90 % of control
- T/C (dose: 200.0 mg/kg/injection, schedule: Q04DX003 (ip), vehicle: saline with Tween-80): 95 % of control

Structure (SMILES): CS(=O)(=O)N1OC1c1ccccc1 (stereo not drawn)
- T/C (dose: 60.0 mg/kg/injection, schedule: Q01DX005 (ip), vehicle: Klucel (hydroxypropylcellulose) (HPC)): 95 % of control
- T/C (dose: 120.0 mg/kg/injection, schedule: Q01DX005 (ip), vehicle: Klucel (hydroxypropylcellulose) (HPC)): 100 % of control

Structure (SMILES): O=C1NC(=O)C2(OC3c4ccccc4C=CN3C3=C2C(=O)CC3)C(=O)N1 (stereo not drawn)
- T/C (dose: 50.0 mg/kg/injection, schedule: Q01DX005 (ip), vehicle: saline with Tween-80): 97 % of control
- T/C (dose: 100.0 mg/kg/injection, schedule: Q01DX005 (ip), vehicle: saline with Tween-80): 91 % of control
- T/C (dose: 200.0 mg/kg/injection, schedule: Q01DX005 (ip), vehicle: saline with Tween-80): 91 % of control

Structure (SMILES): Cc1ccc(-n2c(-c3ccc(-n4c(C)nc5ccc(Br)cc5c4=O)cc3)n[nH]c2=S)cc1
- T/C (dose: 100.0 mg/kg/injection, schedule: Q04DX002 (ip), vehicle: Klucel (hydroxypropylcellulose) (HPC)): 98 % of control
- T/C (dose: 200.0 mg/kg/injection, schedule: Q04DX002 (ip), vehicle: Klucel (hydroxypropylcellulose) (HPC)): 106 % of control
- T/C (dose: 400.0 mg/kg/injection, schedule: Q04DX002 (ip), vehicle: Klucel (hydroxypropylcellulose) (HPC)): 100 % of control
